Reference: patent US9708314B2, “Heterocyclic amide compound” (NISSAN CHEMICAL INDUSTRIES, LTD., priority 2013, dated 2017)
Each block holds one compound with its values, some of them ahead of it.

How the values were obtained:
[1] = tested on: Cyperus difformis; experiment: Test Example 3: herbicidal effect by application to foliage (Wagner pot, water depth 0.1-0.5 cm); type: in vivo; conditions: Nineteenth Table; application to foliage; application herbicide amount 320 g/ha
Summary of the method: (§1)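 Alluvial soil in 1/10000 are Wagner pots, sown and grown 14 days in a 25–30 °C greenhouse. An emulsifiable concentrate diluted in water to the set dose (g/ha) was sprayed on stems and leaves. Effect scored three weeks later on a 0–5 scale: 5 = ≥90% herbicidal ratio, 0 = ≤5%.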

[2] = tested on: Echinochloa crus-galli var. crus-galli; experiment: as above; type: in vivo; conditions: Nineteenth Table; application to foliage; application herbicide amount 320 g/ha
Summary of the method: as §1

[3] = tested on: Echinochloa oryzacola Vasing.; experiment: Test Example 1: herbicidal activity, application before weed generation in submerged conditions; type: in vivo; conditions: Seventeenth Table; for A (Echinochloa oryzicola Vasing.) herbicidal ratio grade: application herbicide amount 320 g/ha
Summary of the method: (§2)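 Alluvial soil in Wagner pots flooded to 4 cm water depth; weed seeds sown and 2.5 leaf stage rice seedlings transplanted. Emulsion diluted in water applied to water surface on sowing day at stated g/ha. Greenhouse 25° C. to 30° C.; effects scored 0–5 by herbicidal ratio after three weeks.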

[4] = tested on: Monochoria vaginalis; experiment: as above; type: in vivo; conditions: Seventeenth Table; for C (Monochoria vaginalis) herbicidal ratio grade: application herbicide amount 320 g/ha
Summary of the method: as §2

[5] = tested on: Scirpus juncoides; experiment: as above; type: in vivo; conditions: Seventeenth Table; for B (Scirpus juncoides) herbicidal ratio grade: application herbicide amount 320 g/ha
Summary of the method: as §2

[6] = tested on: transplanted Oryza sativa; experiment: Test Example 1: effect on crop, application before weed generation in submerged conditions; type: in vivo; conditions: Seventeenth Table; for a (transplanted Oryza sativa) effect on crop grade: application herbicide amount 320 g/ha
Summary of the method: as §2

[7] = tested on: directly sowed Oryza sativa; experiment: Test Example 3: effect on crop by application to foliage (Wagner pot, water depth 0.1-0.5 cm); type: in vivo; conditions: Nineteenth Table; application to foliage; application herbicide amount 320 g/ha
Summary of the method: as §1

[8] = tested on: Leptochloa chinensis; experiment: Test Example 3: herbicidal effect by application to foliage (Wagner pot, water depth 0.1-0.5 cm); type: in vivo; conditions: Nineteenth Table; application to foliage; application herbicide amount 320 g/ha
Summary of the method: as §1

[9] = Application herbicide amount 320 g/ha

- melting point: 198 to 200 °C
SMILES: CC(C)c1nnc2c(C(=S)Nc3nnnn3C)ccc(C(F)(F)F)n12 [2-039, 3-Isopropyl-N-(1-methyl-1H-tetrazol-5-yl)-5-(trifluoromethyl)-[1,2,4]triazolo[4,3-a]pyridine-8-carbothioamide]
- E (herbicidal effect grade) [1]: 5 (Herbicidal ratio of 90% or more (almost completely withered))
- H (herbicidal effect grade) [2]: 5 (Herbicidal ratio of 90% or more (almost completely withered))
- A: Echinochloa oryzicola Vasing. (herbicidal effect grade) [3, 9]: 5 (Herbicidal ratio of 90% or more (almost completely withered))
- C: Monochoria vaginalis (herbicidal effect grade) [4, 9]: 5 (Herbicidal ratio of 90% or more (almost completely withered))
- B: Scirpus juncoides (herbicidal effect grade) [5, 9]: 5 (Herbicidal ratio of 90% or more (almost completely withered))
- a: transplanted Oryza sativa (effect on crop grade) [6, 9]: 4 (Herbicidal ratio of 70% or more and less than 90%)
- b (effect on crop grade) [7]: 4 (Herbicidal ratio of 70% or more and less than 90%)

SMILES: Cn1nnnc1NC(=O)c1ccc(C(F)(F)F)n2c(=O)n(C)nc12 [6-002]
- E (herbicidal effect grade) [1]: 4 (Herbicidal ratio of 70% or more and less than 90%)
- D (herbicidal effect grade) [8]: 5 (Herbicidal ratio of 90% or more (almost completely withered))
- H (herbicidal effect grade) [2]: 5 (Herbicidal ratio of 90% or more (almost completely withered))
- A (Echinochloa oryzicola Vasing.) herbicidal ratio grade [3]: 4 (Herbicidal ratio of 70% or more and less than 90%)
- C (Monochoria vaginalis) herbicidal ratio grade [4]: 2 (Herbicidal ratio of 20% or more and less than 40%)
- B (Scirpus juncoides) herbicidal ratio grade [5]: 3 (Herbicidal ratio of 40% or more and less than 70%)
- a (transplanted Oryza sativa) effect on crop grade [6]: 0 (Herbicidal ratio of 5% or less (almost no effect))
- b (effect on crop grade) [7]: 0 (Herbicidal ratio of 5% or less (almost no effect))

SMILES: CCn1nc2c(C(=O)Nc3nnnn3C)ccc(C(F)(F)F)n2c1=O [6-004]
- E (herbicidal effect grade) [1]: 2 (Herbicidal ratio of 20% or more and less than 40%)
- D (herbicidal effect grade) [8]: 5 (Herbicidal ratio of 90% or more (almost completely withered))
- H (herbicidal effect grade) [2]: 4 (Herbicidal ratio of 70% or more and less than 90%)
- A (Echinochloa oryzicola Vasing.) herbicidal ratio grade [3]: 0 (Herbicidal ratio of 5% or less (almost no effect))
- C (Monochoria vaginalis) herbicidal ratio grade [4]: 2 (Herbicidal ratio of 20% or more and less than 40%)
- B (Scirpus juncoides) herbicidal ratio grade [5]: 0 (Herbicidal ratio of 5% or less (almost no effect))
- a (transplanted Oryza sativa) effect on crop grade [6]: 0 (Herbicidal ratio of 5% or less (almost no effect))
- b (effect on crop grade) [7]: 3 (Herbicidal ratio of 40% or more and less than 70%)

SMILES: CC(C)c1nc2c(C(=O)Nc3nnnn3C)ccc(C(F)(F)F)n2n1 [7-002]
- E (herbicidal effect grade) [1]: 4 (Herbicidal ratio of 70% or more and less than 90%)
- D (herbicidal effect grade) [8]: 4 (Herbicidal ratio of 70% or more and less than 90%)
- H (herbicidal effect grade) [2]: 4 (Herbicidal ratio of 70% or more and less than 90%)
- A (Echinochloa oryzicola Vasing.) herbicidal ratio grade [3]: 3 (Herbicidal ratio of 40% or more and less than 70%)
- C (Monochoria vaginalis) herbicidal ratio grade [4]: 4 (Herbicidal ratio of 70% or more and less than 90%)
- B (Scirpus juncoides) herbicidal ratio grade [5]: 3 (Herbicidal ratio of 40% or more and less than 70%)
- a (transplanted Oryza sativa) effect on crop grade [6]: 1 (Herbicidal ratio of 5% or more and less than 20%)
- b (effect on crop grade) [7]: 0 (Herbicidal ratio of 5% or less (almost no effect))
